Laboratory results from patent US6171829A, “Physiologically active substance PF1191 and process for producing the same” (Meiji Seika Kaisha, Ltd., priority 1997, dated 2001).
Entries after “also recorded” stand apart in the source; their conditions may differ.

Assays:
[1] = tested on: primarily cultured chick telencephalon nerve cells; details: Neuroscience Letters, vol. 139, 205-208 (1992); result in words; cited from earlier work
[2] = tested on: primarily cultured nerve cells of chick telencephalon; assay: Inhibitory activity to kainic acid toxicity, primarily cultured nerve cells of chick telencephalon; format: cell-based
Method: (§1) The inhibitory activities to kainic acid toxicity of the substance PF1191 on primarily cultured nerve cells of chick telencephalon and rat hippocampus were examined. The test with the use of the primarily cultured nerve cells of chick telencephalon was carried out in accordance with the method reported in Neuroscience Letters, vol. 139, 205-208 […], while the test with the use of the primarily cultured nerve cells of rat hippocampus was carried out in accordance with the method reported in Brain Research, 126(1977) 397-425.
(§2) The molar concentration at which the cytotoxicity caused by the addition of 500 μM of kainic acid to the cultured cells was inhibited at a ratio of 50% was expressed in EC50 (effective concentration-fifty) in Table 1 below.

[3] = tested on: primarily cultured nerve cells of rat hippocampus; assay: Inhibitory activity to kainic acid toxicity, primarily cultured nerve cells of rat hippocampus; format: cell-based
Method: as §1, §2

## N#Cc1cc2[nH]c(=O)c(=O)[nH]c2cc1[N+](=O)[O-] [CNQX, 6-cyano-7-nitroquinoxaline-2,3-dione]
[1]
  inhibition of kainic acid toxicity by non-NMDA receptor antagonists: inhibited

## O=c1[nH]c2cc([N+](=O)[O-])c([N+](=O)[O-])cc2[nH]c1=O [DNQX, 6,7-dinitroquinoxaline-2,3-dione]
[1]
  inhibition of kainic acid toxicity by non-NMDA receptor antagonists: inhibited

## NS(=O)(=O)c1cccc2c1c([N+](=O)[O-])cc1[nH]c(=O)c(=O)[nH]c12 [NBQX, 6-nitro-7-sulfamoylbenzo[f]quinoxaline-2,3-dione]
[1]
  inhibition of kainic acid toxicity by non-NMDA receptor antagonists: inhibited

## NC(C(=O)O)C(O)C1(C(=O)O)CCC(CC(NC(=O)c2cc(Cl)c(O)c(Cl)c2)C(=O)O)N1 (centres unmarked) [Substance PF1191]
[2]; Gallus gallus, chick telencephalon nerve cells + kainic acid (500 μM), read-out: 50% Effective conc. (EC50), inhibitory activity to kainic acid toxicity
  EC50: 1500 nM
[2]; chick telencephalon nerve cells, kainic acid 500 μM, result in words
  inhibitory activity to kainic acid toxicity in comparison with DNQX: stronger inhibitory activity to kainic acid toxicity than that of DNQX; also recorded: stronger inhibitory activity to kainic acid toxicity in comparison with the known substance DNQX
[3]; rat hippocampus nerve cells + kainic acid (500 μM), read-out: 50% Effective conc. (EC50), inhibitory activity to kainic acid toxicity
  EC50: 450 nM
[3]; rat hippocampus nerve cells, kainic acid 500 μM, result in words
  inhibitory activity to kainic acid toxicity in comparison with DNQX: stronger inhibitory activity to kainic acid toxicity in comparison with the known substance DNQX

## C=C(C)[C@H]1CN[C@H](C(=O)O)[C@H]1CC(=O)O [kainic acid]
[1]
  toxicity to primarily cultured chick telencephalon nerve cells: toxic
